# Results taken from PMC8587151, “Dibenzofuran Derivatives Inspired from Cercosporamide as Dual Inhibitors of Pim and CLK1 Kinases” (Molecules, 2021).
# Several values for one entry are separate records, joined by “and”; a condition that tells them apart may be missing. Equal entries are not always repeated. Where two headings read alike, the source gives them in different places.
# Tests used:
# HsPim-1 = biological target: T1, HsPim-1 (Homo sapiens, UniProt P11309); assay: Kinase assay, luminescent ADP-Glo, 10 µM ATP; assay type: biochemical; conditions: ADP-Glo, 10 µM ATP
# T1 construct: made in house; host or cells: Escherichia coli BL21 DE3 pLysS
# T1 sequence (P11309 whole entry): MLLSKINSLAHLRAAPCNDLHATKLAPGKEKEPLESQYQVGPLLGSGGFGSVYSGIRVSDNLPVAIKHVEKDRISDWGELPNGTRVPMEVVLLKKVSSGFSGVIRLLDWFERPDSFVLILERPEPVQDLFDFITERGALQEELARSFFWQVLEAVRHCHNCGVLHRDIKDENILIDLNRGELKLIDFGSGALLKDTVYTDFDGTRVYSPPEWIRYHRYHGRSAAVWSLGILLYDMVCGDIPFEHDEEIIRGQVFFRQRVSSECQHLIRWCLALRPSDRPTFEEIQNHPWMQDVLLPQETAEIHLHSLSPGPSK
# Procedure: (§1) The synthesized compounds were tested using a luminescence-based assay against a panel of nine kinases: Pim-1, Pim-2, CDK5/p25, CDK9/CyclinT, Haspin, CK1ε, and GSK3β (from human); DYRK1A (from Rattus norvegicus); and CLK1 (from Mus musculus).
# (§2) Kinase enzymatic activities were assayed with 10 µM ATP in 384-well plates using the luminescent ADP-Glo^TM assay (Promega, Madison, WI, USA) according to the recommendations of the manufacturer (see [56] for details on this method). The transmitted signal was measured using the Envision (PerkinElmer, Waltham, MA, USA) microplate luminometer and expressed in relative light unit (RLU). In order to determine the half maximal inhibitory concentration (IC50), the assays were performed in duplicate in the absence or presence of increasing doses of the tested compounds. GraphPad Prism6 software (GraphPad Software, San Diego, CA, USA) was used to fit dose–response curves and to determine the IC50 values. Kinase activities are expressed in % of maximal activity, i.e., measured in the absence of inhibitor. Peptide substrates were obtained from Proteogenix (Schiltigheim, France).
# (§3) For kinases expressed in bacteria, the Escherichia coli BL21 DE3 pLysS strain (Invitrogen, ThermoFisher Scientific, Waltham, MA, USA) was transformed with pGEX-2T-1 (Sigma-Aldrich, St. Louis, MO, USA) containing the coding region of the corresponding kinase. For kinases expressed in Sf9 insect cells, the coding region of the corresponding kinase was cloned in pFastBac^TM vector. Purification of the recombinant kinases was performed following the protocol “Bac-to-Bac® Baculovirus Expression System” provided by the manufacturer (Invitrogen, ThermoFisher Scientific, Waltham, MA, USA).
# (§4) To validate the kinase assay, model inhibitors were used for each tested enzyme: Staurosporine from Streptomyces sp. (#S5921, purity ≥ 95%, Sigma-Aldrich) for HsCK1ε; Indirubin-30-oxime (#I0404, purity ≥ 98%, Sigma-Aldrich) for HsGSK-3β, HsPim-1 and 2, human cyclin-dependent kinases, RnDYRK1A and MmCLK1; CHR-6494 (#SML0648, purity ≥ 98%, Sigma-Aldrich) for Haspin.
# MV4-11 cells = assay: MTT cell proliferation assay; assay type: cell-based, human; conditions: mean ± SEM; for IC50: Homo sapiens, MV4-11, 48 h
# Excerpt: (§5) Various types of hematological malignancies were selected for in vitro testing: the human acute myeloid leukemia (AML) cell line MV4-11, and the human chronic myeloid leukemia (CML) cell lines KU812 and K562. Indeed, Pim kinases are overexpressed in a wide range of hematopoietic malignancies. Solid tumors were also included in the panel of tested cell lines: MCF-7 (human breast adenocarcinoma), HT-29 (human colon adenocarcinoma), and HeLa (human cervical cancer) cells. Cytotoxic effects were evaluated using an MTT assay, and living cells were also counted with the trypan blue dye exclusion method for MV4-11, KU812, and K562 cells.
# (§6) MV4-11, K562, and KU812 cell lines were obtained from the Deutshe Sammlung von Mikroorganismens und Zellkulturen (DSMZ) and maintained according to the supplier’s recommendations. All cell lines were cultured in RPMI, with 10% fetal bovine serum, 1% glutamine, and 1% penicillin/ streptomycin at 37 °C and 5% CO2.
# (§7) MV4-11, K562, and KU812 cells’ viability was studied using a MTT cell proliferation assay.
# (§8) MV4-11, K562, and KU812 cells were incubated with 10 μL of MTT working solution (5 g/L of methylthiazolyldiphenyl-tetrazolium bromide from Sigma Aldrich, Lyon, France) for 4 h. Cells were then lysed overnight at 37 °C with 100 μL of 10% SDS and 0.003% HCl. Optical density (OD) at 570 nm was measured using a spectrophotometer CLARIOstar® (BMG Labtech, Offenburg, Germany). Living cells were also counted with the trypan blue dye exclusion method. […] Data were collected from at least three independent experiments and the values reported are means ± standard errors of the mean (SEM).
# K562 cells = assay: MTT cell proliferation assay; assay type: cell-based; conditions: Homo sapiens, 48 h, mean ± SEM
# Excerpt: as §5, §6, §7, §8
# KU812 cells = assay: MTT cell proliferation assay; assay type: cell-based; conditions: Homo sapiens, 48 h, mean ± SEM
# Excerpt: as §5, §6, §7, §8
# HeLa cells = assay: MTT cytotoxicity assay; assay type: cell-based; conditions: Homo sapiens, 72 h
# Excerpt: as §5
# (§9) The cancer cell lines MCF-7, HT-29, and HeLa were obtained from Cell Bank of Rio de Janeiro, Brazil, and were grown in RPMI-1640 medium and L929 cells were grown in Dulbecco’s Modified Eagle’s Medium (DMEM). Both media were supplemented with fetal bovine serum (FBS) (10% of the final concentration) followed by treatment with penicillin and streptomycin as antibiotics (1% of the final concentration). The crude was incubated in the presence of CO2 atmosphere (5%) for 24 h with the temperature monitored and maintained at 37 °C.
# (§10) MCF-7, HT-29, HeLa, and L929 cells (3×10^5 cells/mL) were plated in 96-well plates and incubated in the presence of CO2 atmosphere (5%) for 24 h at 37 °C. […] Then, 25 μL of MTT (5 mg/mL in PBS) were added to each well and the plates were left for another 3 h in the incubator at 37 °C and at the end of this period, the supernatant was aspirated. To perform the reading, 100 μL of dimethylsulfoxide (DMSO) were added in each well for the dissolution of the formazan crystals. The amount of formazan was measured by reading the plate at 560 nm absorbance. […] Each sample was tested in triplicate in two independent experiments.
# MCF-7 cells = assay: MTT cytotoxicity assay; assay type: cell-based; conditions: Homo sapiens, MCF7, 72 h
# Excerpt: as §5, §9, §10
# L929 cells = assay: MTT assay, in vitro toxicity on normal cells; assay type: cell-based; conditions: 72 h, normal mouse fibroblasts
# Excerpt: as §5, §9, §10
# HsCDK5/p25 = biological target: T2, HsCDK5/p25 (Homo sapiens, UniProt Q00535); assay: Kinase assay, luminescent ADP-Glo, 10 µM ATP; assay type: biochemical; conditions: duplicate, read-out: Kinase Enzymatic IC50 CDK5/p25
# T2 construct: made in house; host or cells: Escherichia coli BL21 DE3 pLysS
# T2 sequence (Q00535 whole entry): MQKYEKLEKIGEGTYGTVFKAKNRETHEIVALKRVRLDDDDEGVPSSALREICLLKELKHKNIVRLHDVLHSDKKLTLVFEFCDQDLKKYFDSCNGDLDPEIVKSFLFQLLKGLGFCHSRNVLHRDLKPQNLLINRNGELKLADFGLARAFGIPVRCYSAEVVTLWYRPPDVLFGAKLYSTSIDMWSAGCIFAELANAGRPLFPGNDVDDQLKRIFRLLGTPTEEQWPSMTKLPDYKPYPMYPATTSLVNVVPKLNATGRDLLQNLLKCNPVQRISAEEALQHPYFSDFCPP
# T2 sequence (Q15078 99-307 partner limits assumed): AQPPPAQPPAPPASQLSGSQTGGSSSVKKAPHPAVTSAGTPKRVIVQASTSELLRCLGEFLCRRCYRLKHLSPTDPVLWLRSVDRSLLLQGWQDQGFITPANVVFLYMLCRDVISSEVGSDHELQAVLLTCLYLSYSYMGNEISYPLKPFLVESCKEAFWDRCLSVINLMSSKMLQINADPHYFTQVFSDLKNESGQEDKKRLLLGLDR
# Procedure: as §1, §2, §3, §4
# HsCDK9/CyclinT = biological target: T3, HsCDK9/CyclinT (Homo sapiens, UniProt P50750); assay: Kinase assay, luminescent ADP-Glo, 10 µM ATP; assay type: biochemical; conditions: duplicate, read-out: Kinase Enzymatic IC50 CDK9/CyclinT
# T3 construct: made in house; host or cells: Sf9 insect cells (baculovirus, pFastBac)
# T3 sequence (P50750 whole entry): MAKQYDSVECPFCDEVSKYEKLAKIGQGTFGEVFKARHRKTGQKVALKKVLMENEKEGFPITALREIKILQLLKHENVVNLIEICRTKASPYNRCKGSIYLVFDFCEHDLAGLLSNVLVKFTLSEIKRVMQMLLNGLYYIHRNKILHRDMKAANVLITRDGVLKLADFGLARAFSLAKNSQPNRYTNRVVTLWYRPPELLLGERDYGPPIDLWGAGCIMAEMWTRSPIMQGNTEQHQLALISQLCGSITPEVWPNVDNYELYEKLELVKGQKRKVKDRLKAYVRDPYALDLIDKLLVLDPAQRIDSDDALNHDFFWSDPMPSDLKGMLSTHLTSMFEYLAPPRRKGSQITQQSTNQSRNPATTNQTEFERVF
# T3 sequence (O60563 whole entry partner): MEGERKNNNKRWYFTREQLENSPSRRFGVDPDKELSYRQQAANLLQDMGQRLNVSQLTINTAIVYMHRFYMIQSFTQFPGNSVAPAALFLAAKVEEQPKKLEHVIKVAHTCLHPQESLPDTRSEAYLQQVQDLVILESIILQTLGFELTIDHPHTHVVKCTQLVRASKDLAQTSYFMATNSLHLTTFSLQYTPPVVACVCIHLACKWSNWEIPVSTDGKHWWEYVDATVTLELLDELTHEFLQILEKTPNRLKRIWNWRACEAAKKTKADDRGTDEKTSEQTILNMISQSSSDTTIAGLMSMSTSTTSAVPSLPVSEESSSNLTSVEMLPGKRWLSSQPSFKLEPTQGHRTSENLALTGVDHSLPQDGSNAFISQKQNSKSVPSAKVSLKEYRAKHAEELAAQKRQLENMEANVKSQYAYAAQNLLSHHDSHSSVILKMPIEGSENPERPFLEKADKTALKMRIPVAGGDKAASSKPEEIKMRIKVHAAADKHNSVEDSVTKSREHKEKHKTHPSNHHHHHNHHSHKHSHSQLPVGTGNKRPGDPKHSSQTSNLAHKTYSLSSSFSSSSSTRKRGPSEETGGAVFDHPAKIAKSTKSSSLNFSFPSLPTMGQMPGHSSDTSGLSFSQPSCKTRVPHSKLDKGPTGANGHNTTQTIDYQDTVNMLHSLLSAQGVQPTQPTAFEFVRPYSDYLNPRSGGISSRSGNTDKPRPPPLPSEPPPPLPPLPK
# Procedure: as §1, §2, §3, §4
# HsPim-2 = biological target: T4, HsPim-2 (Homo sapiens, UniProt Q9P1W9); assay: Kinase assay, luminescent ADP-Glo, 10 µM ATP; assay type: biochemical; conditions: mean of n ≥ 3, read-out: IC50 Pim-2
# T4 construct: made in house; host or cells: Escherichia coli BL21 DE3 pLysS
# T4 sequence (Q9P1W9 whole entry): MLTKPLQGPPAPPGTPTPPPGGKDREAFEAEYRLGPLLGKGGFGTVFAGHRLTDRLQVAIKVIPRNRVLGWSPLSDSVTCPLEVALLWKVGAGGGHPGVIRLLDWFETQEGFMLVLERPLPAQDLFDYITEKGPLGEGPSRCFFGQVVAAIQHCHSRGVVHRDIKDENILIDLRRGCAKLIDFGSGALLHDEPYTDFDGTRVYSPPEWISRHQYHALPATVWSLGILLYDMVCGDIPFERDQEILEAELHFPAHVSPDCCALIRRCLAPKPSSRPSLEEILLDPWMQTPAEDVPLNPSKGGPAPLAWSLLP
# Procedure: as §1, §2, §3, §4
# MmCLK1 = biological target: T5, MmCLK1 (Mus musculus, UniProt P22518); assay: Kinase assay, luminescent ADP-Glo, 10 µM ATP; assay type: biochemical; conditions: ADP-Glo, 10 µM ATP, duplicate; read-out: Kinase Enzymatic IC50 CLK1
# T5 construct: made in house; host or cells: Escherichia coli BL21 DE3 pLysS
# T5 sequence (P22518 whole entry): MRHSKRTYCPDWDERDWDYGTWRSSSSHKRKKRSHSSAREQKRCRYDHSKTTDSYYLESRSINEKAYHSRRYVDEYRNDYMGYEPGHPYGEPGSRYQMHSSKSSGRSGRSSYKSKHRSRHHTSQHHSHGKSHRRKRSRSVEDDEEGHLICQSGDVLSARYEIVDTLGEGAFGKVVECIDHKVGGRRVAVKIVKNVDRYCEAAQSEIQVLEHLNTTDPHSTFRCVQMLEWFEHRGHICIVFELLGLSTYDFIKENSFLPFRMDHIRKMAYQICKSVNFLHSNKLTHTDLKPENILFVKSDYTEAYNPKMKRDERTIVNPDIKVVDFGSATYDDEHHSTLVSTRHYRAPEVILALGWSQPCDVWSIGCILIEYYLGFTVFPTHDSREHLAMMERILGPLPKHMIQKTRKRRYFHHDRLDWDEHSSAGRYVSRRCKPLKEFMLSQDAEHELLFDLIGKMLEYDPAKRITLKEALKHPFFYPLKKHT
# Procedure: as §1, §2, §3, §4
# [1] = Table 1, duplicate, read-out: Kinase Enzymatic IC50 Pim-1
# [2] = Table 2, mean of n ≥ 3, read-out: IC50 Pim-1
Structure (SMILES),IC50 (HsPim-1; [1]),melting point [°C],IC50 (HsPim-1; [2]) [µM],IC50 (MV4-11 cells) [µM],IC50 (K562 cells) [µM],IC50 (KU812 cells) [µM],IC50 (HeLa cells) [µM],IC50 (MCF-7 cells) [µM],IC50 (L929 cells) [µM],IC50 (HsCDK5/p25) [µM],IC50 (HsCDK9/CyclinT) [µM],IC50 (HsPim-2) [µM],IC50 (MmCLK1) [µM],IC50 MV4-11 (MV4-11 cells; 48 h)
"COc1cc(OC)c2c(oc3c([N+](=O)[O-])cccc32)c1C(N)=O [Compound 14, 1,3-Dimethoxy-6-nitrodibenzo[b,d]furan-4-carboxamide]",3.21 µM,298 to 299,,,,,,,,,,,,
"NC(=O)c1c(O)cc(O)c2c1oc1c([N+](=O)[O-])cccc12 [Compound 15, 1,3-Dihydroxy-6-nitrodibenzo[b,d]furan-4-carboxamide]",0.18 µM,> 300,0.18,30.7 ± 1.1,> 100,78.4 ± 2.1,24.7 ± 6.7,> 100,49.2 ± 1,,,,,
"NC(=O)c1c(O)cc(O)c2c1oc1c(N)cccc12 [Compound 16, 6-Amino-1,3-dihydroxydibenzo[b,d]furan-4-carboxamide]",0.13 µM,,0.13,10.1 ± 0.8,> 100,> 100,14.6 ± 7.2,> 100,> 100,> 10,> 10,0.085,0.45,
"NC(=O)c1c(O)cc(O)c2c1oc1ccccc12 [Compound 17, 1,3-Dihydroxydibenzo[b,d]furan-4-carboxamide]",0.23 µM,219 to 220,0.23,14.3 ± 1.1,> 100,> 100,9.5 ± 4.1,> 100,> 100,,,,0.26,
"COc1cc(OC)c2c(oc3c(N)cccc32)c1C(N)=O [Compound 18, 6-Amino-1,3-dimethoxydibenzo[b,d]furan-4-carboxamide]",> 10 µM,293 to 294,,,,,,,,,,,,
"COc1cc(OC)c2c(oc3ccccc32)c1C(N)=O [Compound 19, 1,3-Dimethoxydibenzo[b,d]furan-4-carboxamide]",> 10 µM,296 to 297,,,,,,,,,,,,
"COc1cc2oc3c(C(N)=O)c(OC)cc(OC)c3c2cc1C(C)=O [Compound 38, 8-Acetyl-1,3,7-trimethoxydibenzo[b,d]furan-4-carboxamide]",> 10 µM,,,,,,,,,,,,,
"COc1ccc2c(c1)oc1c(C(N)=O)c(OC)cc(OC)c12 [Compound 39, 1,3,7-Trimethoxydibenzo[b,d]furan-4-carboxamide]",> 10 µM,332 to 333,,,,,,,,,,,,
"COc1cc(OC)c2c(oc3ccc(C(C)=O)cc32)c1C(N)=O [Compound 40, 8-Acetyl-1,3-dimethoxydibenzo[b,d]furan-4-carboxamide]",> 10 µM,237 to 238,,,,,,,,,,,,
"COc1cc(OC)c2c(oc3ccc(C(F)(F)F)cc32)c1C(N)=O [Compound 42, 1,3-Dimethoxy-8-(trifluoromethyl)dibenzo[b,d]furan-4-carboxamide]",> 10 µM,250 to 251,,,,,,,,,,,,
"CC(=O)c1cc2c(cc1O)oc1c(C(N)=O)c(O)cc(O)c12 [Compound 43, 8-Acetyl-1,3,7-trihydroxydibenzo[b,d]furan-4-carboxamide]",0.82 µM,335 to 336,0.82,52.2 ± 1.7,> 100,> 100,57.1 ± 7.6,> 100,> 100,,,0.14,,
"NC(=O)c1c(O)cc(O)c2c1oc1cc(O)ccc12 [Compound 44, 1,3,7-Trihydroxydibenzo[b,d]furan-4-carboxamide]",0.06 µM,,0.06,2.6 ± 0.4,75.7 ± 11.8,42.1 ± 1.3,10.2 ± 1.2,52.5 ± 1.2,28.4 ± 1.1,> 10,> 10,0.035,0.026,
"NC(=O)c1c(O)cc(O)c2c1oc1ccc(C(F)(F)F)cc12 [Compound 47, 1,3-Dihydroxy-8-(trifluoromethyl)dibenzo[b,d]furan-4-carboxamide]",> 1 µM and 2.35 µM,347 to 348,2.35,> 100,> 100,> 100,,,,,,,,inactive
"CN1CCC(CNc2ccc3ncc(-c4cccc(OC(F)(F)F)c4)n3n2)CC1 [SGI-1776, reference compound]",,,,0.03 ± 0.003,3.7 ± 1.5,3.5 ± 0.6,,,,,,,,
